In patent US20230114728A1 (Venatorx Pharmaceuticals, Inc., priority 2019, published 2023):
Converted amounts (≈) assume the structure as drawn.

Key:
P. aeruginosa PBP3 = target: T1, P. aeruginosa PBP3 (Pseudomonas aeruginosa, UniProt G3XD46); test: Bocillin-FL fluorescence polarization competition binding assay, P. aeruginosa PBP3; conditions: fluorescence polarization competition binding assay using Bocillin-FL
T1 construct: made in house
Procedure, shortened: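 Binding of boronic acid inhibitors to purified Pseudomonas aeruginosa (PA01) PBP3 was measured by fluorescence polarization competition with Bocillin-FL, a fluorescent penicillin V. Reactions of 80 μl contained 0.75 μM PBP3 and 0.1 μM Bocillin-FL in 50 mM Hepes (pH 8.0), 300 mM NaCl and 5% (v/v) glycerol, in black 384-well plates. FP (Excitation 490 nm, Emission 520 nm) was read for up to 60 minutes. EC50 is the concentration that halves PBP-bound Bocillin-FL.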

[1] = test system: N. gonorrhoeae ATCC 49226; test: Liquid broth MIC in Fastidious broth; format: cell-based; conditions: Neisseria gonorrhoeae, ATCC49226; N. gonorrhoeae strain ATCC 49226; Fastidious broth; read-out: Minimum Inhibitory Concentration, N. gonorrhoeae ATCC 49226
Procedure, shortened: (§1)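 Colonies were swabbed from chocolate agar after 24 h growth and standardised by optical density at 600 nm. Compounds were serially diluted twofold in Fastidious broth, and bacteria added to give 5×10^5 CFU/mL. After about 24 h at 36 °C in 5% CO2, the lowest concentration allowing under 10% growth was taken as MIC.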

N. gonorrhoeae FA1090 = test: Liquid broth MIC in Fastidious broth; format: cell-based; conditions: Neisseria gonorrhoeae; N. gonorrhoeae strain FA1090; Fastidious broth; read-out: Minimum Inhibitory Concentration, N. gonorrhoeae FA1090
Procedure, shortened: as §1

N. gonorrhoeae H041 = test: Liquid broth MIC in Fastidious broth; format: cell-based; conditions: Neisseria gonorrhoeae, H041, read-out: Minimum Inhibitory Concentration, N. gonorrhoeae H041
Procedure, shortened: (§2)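 Mosaic PBP2 producers; colonies from 24 h chocolate agar, saline suspension, OD600. Fastidious broth, 2-fold dilutions, 5×10^5 CFU/mL. ~24 h, 36 °C, 5% CO2; visual MIC, <10% growth cutoff.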

N. gonorrhoeae WHO G = test: Liquid broth MIC in Fastidious broth; format: cell-based; conditions: Neisseria gonorrhoeae; N. gonorrhoeae strain WHO G; Fastidious broth; read-out: Minimum Inhibitory Concentration, N. gonorrhoeae WHO G
Procedure, shortened: as §1

N. gonorrhoeae WHO K = test: Liquid broth MIC in Fastidious broth; format: cell-based; conditions: Neisseria gonorrhoeae, read-out: Minimum Inhibitory Concentration, N. gonorrhoeae WHO K
Procedure, shortened: as §2

N. gonorrhoeae WHO L = test: Liquid broth MIC in Fastidious broth; format: cell-based; conditions: Neisseria gonorrhoeae; N. gonorrhoeae strain WHO L; Fastidious broth; read-out: Minimum Inhibitory Concentration, N. gonorrhoeae WHO L
Procedure, shortened: as §1

T1 sequence (G3XD46 whole entry): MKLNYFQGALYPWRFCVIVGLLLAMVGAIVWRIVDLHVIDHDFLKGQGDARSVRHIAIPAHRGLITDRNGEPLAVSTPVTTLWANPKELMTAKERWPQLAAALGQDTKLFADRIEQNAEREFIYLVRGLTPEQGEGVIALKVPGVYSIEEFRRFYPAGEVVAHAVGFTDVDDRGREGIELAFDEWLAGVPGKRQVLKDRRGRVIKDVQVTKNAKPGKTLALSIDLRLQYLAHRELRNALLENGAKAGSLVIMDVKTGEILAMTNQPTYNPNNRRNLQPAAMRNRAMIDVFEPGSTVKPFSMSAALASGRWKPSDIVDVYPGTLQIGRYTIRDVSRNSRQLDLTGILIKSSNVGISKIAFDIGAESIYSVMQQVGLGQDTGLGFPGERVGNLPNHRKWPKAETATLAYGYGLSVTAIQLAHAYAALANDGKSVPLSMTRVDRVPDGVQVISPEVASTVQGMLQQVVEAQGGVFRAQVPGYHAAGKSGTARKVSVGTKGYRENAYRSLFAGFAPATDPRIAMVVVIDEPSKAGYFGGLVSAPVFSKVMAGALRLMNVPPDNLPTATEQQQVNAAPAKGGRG

Q: With `CC(C)(C)[C@@H](NC(=O)N1CCN(CCNC(=O)c2c(F)cc(O)c(O)c2Cl)C(=O)C1=O)C(=O)N[C@H]1Cc2ccc(F)c(C(=O)O)c2OB1O` [Example 80, (R)-3-((R)-2-(4-(2-(2-chloro-6-fluoro-3,4-dihydroxybenzamido)ethyl)-2,3-dioxopiperazine-1-carboxamido)-3,3-dimethylbutanamido)-7-fluoro-2-hydroxy-3,4-dihydro-2H-benzo[e][1,2]oxaborinine-8-carboxylic acid] as the compound, how does the “P. aeruginosa PBP3 Potency” value (P. aeruginosa PBP3) read?
A: D (D represents a potency <10 μM)

Q: What about the MIC [1] of the same compound?
A: 16 to 32 µg/mL (≈ 22.5 to 45.1 µM)

Q: And the MIC (N. gonorrhoeae FA1090)?
A: 4 to 8 µg/mL (≈ 5.63 to 11.3 µM)

Q: What about the MIC (N. gonorrhoeae H041) of the same compound?
A: > 64 µg/mL

Q: What about the MIC (N. gonorrhoeae WHO G) of the same compound?
A: 16 to 32 µg/mL (≈ 22.5 to 45.1 µM)

Q: What about the MIC (N. gonorrhoeae WHO K) of the same compound?
A: > 64 µg/mL

Q: And the MIC (N. gonorrhoeae WHO L)?
A: > 64 µg/mL

Q: Which results are given for `NCCN1CCN(C(=O)NC(C(=O)N[C@H]2Cc3cccc(C(=O)O)c3OB2O)c2cc(Cl)c(O)cc2F)C(=O)C1=O` (stereo partly drawn) [Example 87, (3R)-3-(2-(4-(2-aminoethyl)-2,3-dioxopiperazine-1-carboxamido)-2-(5-chloro-2-fluoro-4-hydroxyphenyl)acetamido)-2-hydroxy-3,4-dihydro-2H-benzo[e][1,2]oxaborinine-8-carboxylic acid]?
A: P. aeruginosa PBP3 Potency (P. aeruginosa PBP3): D (D represents a potency <10 μM); MIC [1]: 16 to 32 µg/mL (≈ 27 to 54.1 µM); MIC (N. gonorrhoeae FA1090): 0.25 to 0.5 µg/mL (≈ 0.422 to 0.845 µM); MIC (N. gonorrhoeae H041): > 64 µg/mL; MIC (N. gonorrhoeae WHO G): 4 to 8 µg/mL (≈ 6.76 to 13.5 µM); MIC (N. gonorrhoeae WHO K): > 64 µg/mL; MIC (N. gonorrhoeae WHO L): 16 to 32 µg/mL (≈ 27 to 54.1 µM)

Q: For `NCCN1CCN(C(=O)N[C@@H](C(=O)N[C@H]2Cc3cccc(C(=O)O)c3OB2O)c2cc(Cl)c(O)cc2Cl)C(=O)C1=O` [Example 90, (R)-3-((R)-2-(4-(2-aminoethyl)-2,3-dioxopiperazine-1-carboxamido)-2-(2,5-dichloro-4-hydroxyphenyl)acetamido)-2-hydroxy-3,4-dihydro-2H-benzo[e][1,2]oxaborinine-8-carboxylic acid], which “P. aeruginosa PBP3 Potency” value (P. aeruginosa PBP3) is on record?
A: D (D represents a potency <10 μM)

Q: What about the MIC [1] of the same compound?
A: > 64 µg/mL

Q: What about the MIC (N. gonorrhoeae FA1090) of the same compound?
A: 4 to 8 µg/mL (≈ 6.58 to 13.2 µM)

Q: And the MIC (N. gonorrhoeae H041)?
A: > 64 µg/mL

Q: What about the MIC (N. gonorrhoeae WHO G) of the same compound?
A: 16 to 32 µg/mL (≈ 26.3 to 52.6 µM)

Q: And the MIC (N. gonorrhoeae WHO K)?
A: > 64 µg/mL

Q: What about the MIC (N. gonorrhoeae WHO L) of the same compound?
A: > 64 µg/mL

Q: What does the source list for `NCCN1CCN(C(=O)NC(C(=O)N[C@H]2Cc3cccc(C(=O)O)c3OB2O)c2cc(F)c(O)cc2F)C(=O)C1=O` (stereo partly drawn) [Example 93, (3R)-3-(2-(4-(2-aminoethyl)-2,3-dioxopiperazine-1-carboxamido)-2-(2,5-difluoro-4-hydroxyphenyl)acetamido)-2-hydroxy-3,4-dihydro-2H-benzo[e][1,2]oxaborinine-8-carboxylic acid]?
A: P. aeruginosa PBP3 Potency (P. aeruginosa PBP3): D (D represents a potency <10 μM); MIC [1]: > 64 µg/mL; MIC (N. gonorrhoeae FA1090): 1 to 2 µg/mL (≈ 1.74 to 3.48 µM); MIC (N. gonorrhoeae H041): > 64 µg/mL; MIC (N. gonorrhoeae WHO G): 4 to 8 µg/mL (≈ 6.95 to 13.9 µM); MIC (N. gonorrhoeae WHO K): > 64 µg/mL; MIC (N. gonorrhoeae WHO L): > 64 µg/mL

Q: What does the source list for `CCN1CCN(C(=O)NC(C(=O)N[C@H]2Cc3cccc(C(=O)O)c3OB2O)c2c(F)cc(O)cc2Cl)C(=O)C1=O` (stereo partly drawn) [Example 95, (3R)-3-(2-(2-chloro-6-fluoro-4-hydroxyphenyl)-2-(4-ethyl-2,3-dioxopiperazine-1-carboxamido)acetamido)-2-hydroxy-3,4-dihydro-2H-benzo[e][1,2]oxaborinine-8-carboxylic acid]?
A: P. aeruginosa PBP3 Potency (P. aeruginosa PBP3): D (D represents a potency <10 μM); MIC [1]: 4 to 8 µg/mL (≈ 6.94 to 13.9 µM); MIC (N. gonorrhoeae FA1090): < 0.125 µg/mL; MIC (N. gonorrhoeae H041): 16 to 32 µg/mL (≈ 27.7 to 55.5 µM); MIC (N. gonorrhoeae WHO G): 1 to 2 µg/mL (≈ 1.73 to 3.47 µM); MIC (N. gonorrhoeae WHO K): 16 to 32 µg/mL (≈ 27.7 to 55.5 µM); MIC (N. gonorrhoeae WHO L): 16 to 32 µg/mL (≈ 27.7 to 55.5 µM)

Q: What does the source list for `CCN1CCN(C(=O)NC(C(=O)N[C@H]2Cc3cccc(C(=O)O)c3OB2O)c2cccc(NC(=O)c3cncnc3)c2)C(=O)C1=O` (stereo partly drawn) [Example 96, (3R)-3-(2-(4-ethyl-2,3-dioxopiperazine-1-carboxamido)-2-(3-(pyrimidine-5-carboxamido)phenyl)acetamido)-2-hydroxy-3,4-dihydro-2H-benzo[e][1,2]oxaborinine-8-carboxylic acid]?
A: P. aeruginosa PBP3 Potency (P. aeruginosa PBP3): D (D represents a potency <10 μM); MIC [1]: > 64 µg/mL; MIC (N. gonorrhoeae FA1090): 4 to 8 µg/mL (≈ 6.36 to 12.7 µM); MIC (N. gonorrhoeae H041): > 64 µg/mL; MIC (N. gonorrhoeae WHO G): 16 to 32 µg/mL (≈ 25.4 to 50.8 µM); MIC (N. gonorrhoeae WHO K): > 64 µg/mL; MIC (N. gonorrhoeae WHO L): > 64 µg/mL

Q: How did the “P. aeruginosa PBP3 Potency” value (P. aeruginosa PBP3) turn out when `CCN1CCN(C(=O)NC(C(=O)N[C@H]2Cc3cccc(C(=O)O)c3OB2O)c2cccc(NC(=O)c3cccnc3)c2)C(=O)C1=O` (stereo partly drawn) [Example 97, (3R)-3-(2-(4-ethyl-2,3-dioxopiperazine-1-carboxamido)-2-(3-(nicotinamido)phenyl)acetamido)-2-hydroxy-3,4-dihydro-2H-benzo[e][1,2]oxaborinine-8-carboxylic acid] was run?
A: D (D represents a potency <10 μM)

Q: And the MIC [1]?
A: > 64 µg/mL

Q: What about the MIC (N. gonorrhoeae FA1090) of the same compound?
A: 1 to 2 µg/mL (≈ 1.59 to 3.18 µM)

Q: And the MIC (N. gonorrhoeae H041)?
A: > 64 µg/mL

Q: What about the MIC (N. gonorrhoeae WHO G) of the same compound?
A: 4 to 8 µg/mL (≈ 6.37 to 12.7 µM)

Q: What about the MIC (N. gonorrhoeae WHO K) of the same compound?
A: > 64 µg/mL

Q: And the MIC (N. gonorrhoeae WHO L)?
A: > 64 µg/mL

Q: With `CCN1CCN(C(=O)NC(C(=O)N[C@H]2Cc3cccc(C(=O)O)c3OB2O)c2cccc(NS(N)(=O)=O)c2)C(=O)C1=O` (stereo partly drawn) [Example 98, (3R)-3-(2-(4-ethyl-2,3-dioxopiperazine-1-carboxamido)-2-(3-(sulfamoylamino)phenyl)acetamido)-2-hydroxy-3,4-dihydro-2H-benzo[e][1,2]oxaborinine-8-carboxylic acid] as the compound, how does the “P. aeruginosa PBP3 Potency” value (P. aeruginosa PBP3) read?
A: D (D represents a potency <10 μM)

Q: What about the MIC [1] of the same compound?
A: 16 to 32 µg/mL (≈ 26.6 to 53.1 µM)

Q: What about the MIC (N. gonorrhoeae FA1090) of the same compound?
A: 0.25 to 0.5 µg/mL (≈ 0.415 to 0.83 µM)

Q: What about the MIC (N. gonorrhoeae H041) of the same compound?
A: 16 to 32 µg/mL (≈ 26.6 to 53.1 µM)

Q: And the MIC (N. gonorrhoeae WHO G)?
A: 1 to 2 µg/mL (≈ 1.66 to 3.32 µM)

Q: And the MIC (N. gonorrhoeae WHO K)?
A: 16 to 32 µg/mL (≈ 26.6 to 53.1 µM)

Q: And the MIC (N. gonorrhoeae WHO L)?
A: > 64 µg/mL

Q: What does the source list for `CCN1CCN(C(=O)NC(C(=O)N[C@H]2Cc3cccc(C(=O)O)c3OB2O)c2cccc(S(N)(=O)=O)c2)C(=O)C1=O` (stereo partly drawn) [Example 99, (3R)-3-(2-(4-ethyl-2,3-dioxopiperazine-1-carboxamido)-2-(3-sulfamoylphenyl)acetamido)-2-hydroxy-3,4-dihydro-2H-benzo[e][1,2]oxaborinine-8-carboxylic acid]?
A: P. aeruginosa PBP3 Potency (P. aeruginosa PBP3): D (D represents a potency <10 μM); MIC [1]: 16 to 32 µg/mL (≈ 27.2 to 54.5 µM); MIC (N. gonorrhoeae FA1090): 0.25 to 0.5 µg/mL (≈ 0.426 to 0.851 µM); MIC (N. gonorrhoeae H041): 16 to 32 µg/mL (≈ 27.2 to 54.5 µM); MIC (N. gonorrhoeae WHO G): 1 to 2 µg/mL (≈ 1.7 to 3.4 µM); MIC (N. gonorrhoeae WHO K): 16 to 32 µg/mL (≈ 27.2 to 54.5 µM); MIC (N. gonorrhoeae WHO L): > 64 µg/mL
